# According to paper PMC8954214, “Preparation, Identification, Molecular Docking Study and Protective Function on HUVECs of Novel ACE Inhibitory Peptides from Protein Hydrolysate of Skipjack Tuna Muscle” (Marine Drugs, 2022):
# How the values were obtained:
# [1] = system: HUVECs; test: NO production in HUVECs; type: cell-based, human; conditions: 24 h
# [2] = system: HUVECs; test: ET-1 secretion of HUVECs; type: cell-based, human; conditions: 24 h
# Source text: Skipjack tuna (K. pelamis) muscle was provided by Ningbo Today Food Co., Ltd (China). Sephadex G-25 resins and NO assay kit (Nitrate reductase approach, A012-1) were purchased from Nanjing Jiancheng Bioengineering Institute (China). ET-1 ELISA Kit (HM10108) was purchased from Shanghai Qiaodu Biotechnology Co. Ltd. (China).Trypsase (≥20,000 U/g), pepsase (≥500,000 U/g), papain (≥400,000 U/g), ACE (A6778) and N-[3-(2-Furyl) acryloyl]-Phe-Gly-Gly (FAPGG, F713) were purchased from Sigma-Aldrich (Shanghai) Trading Co., Ltd. (China). […] ACEi Peptides of (TMAP1-TMAP6) with purity higher than 98% were synthesized in Shanghai Apeptide Co. Ltd. (China).
# The NO and ET-1 contents of HUVECs were determined after a 24 h treatment of ACEi peptides. […] NO and ET-1 production in treated cells were measured by employing human NO and ET-1 assay kit as manufactures’ protocol, separately.
# [3] = system: HUVECs; test: HUVEC viability, MTT assay; type: cell-based, human; conditions: 24 h, 100–400 μM
# Description: After thawing, HUVECs were maintained in cultured flasks and cultured to confluence in DMEM containing 1% Penicillin-Streptomycin liquid, supplemented with 10% FBS. HUVECs received the culturing process at 37°C in a humidified 5% CO2 atmosphere.
# The cell viability of TMAP1 and TMAP2 on HUVECs were assessed using the MTT assay on manufacturer’s instructions. In brief, cells were incubated in 96-well plates at density of 0.8 × 10^4 cells per well with 180 μL completed DMEM. Following a confluency of 50–60% in the 96-well plates, the cells were treated with 20 μL peptides under designed concentrations (100, 200, and 400 μM) and further cultured for 24 h at 37 °C. Subsequently, the cells were added to 20 μL MTT solution (5 mg/mL) and incubated for 4 h. Finally, DMSO was added into each well, and the absorbance (A) at 490 nm was determined. The cell viability was calculated as: Cell viability (%) = (Aexperiment group/Acontrol group) × 100(2)
# [4] = system: eNOS; conditions: via Akt pathway; cited from earlier work
# Source text: (§1) Among these peptides, ACEi peptides represent a promising alternative to synthetic drugs to control hypertension. For instance, canary seed peptides (CSP) have great potential as anti-hypertensive and anti-obesity agents due to their inhibition activity on ACE and pancreatic lipase, and their non-competitive inhibitory activity was due to their destabilization of the transition state and Zn(II) coordination in ACE [13]. Noncompetitive ...
# [5] = system: HUVECs; conditions: cited from earlier work
# Source text: Among these peptides, ACEi peptides represent a promising alternative to synthetic drugs to control hypertension. For instance, canary seed peptides (CSP) have great potential as anti-hypertensive and anti-obesity agents due to their inhibition activity on ACE and pancreatic lipase, and their non-competitive inhibitory activity was due to their destabilization of the transition state and Zn(II) coordination in ACE [13]. Noncompetitive ... || NO can antagonize the vascular tone function of angiotensin II by down-regulating the synthesis of ang II type 1 receptor and ACE, which is further involved in regulating the peripheral and central function of the cardiovascular system and exerts vasoprotective effects. […] Therefore, the deficiency of NO will increase the risks of cardiovascular in pathologic situations, and improving endothelial NO production represents reasonable therapeutic strateg ...
# [6] = system: systolic blood pressure; conditions: single blood pressure test; cited from earlier work
# Source text: as §1
# [7] = system: ET-1; conditions: cited from earlier work; for ET-1 generation: from R. philippinarum
# Source text: as §1, with “... || ET-1 is a known vasoconstriction factor similar to Ang II and is capable of inducing endothelial dysfunction related to atherosclerosis and hypertension.” for “...”
# [8] = biological target: T1, ACE (Oryctolagus cuniculus, UniProt P12822); conditions: from Ruditapes philippinarum; cited from earlier work
# T1 construct: purchased Sigma-Aldrich (Shanghai) Trading Co., Ltd. A6778
# T1 sequence (P12822 34-1310): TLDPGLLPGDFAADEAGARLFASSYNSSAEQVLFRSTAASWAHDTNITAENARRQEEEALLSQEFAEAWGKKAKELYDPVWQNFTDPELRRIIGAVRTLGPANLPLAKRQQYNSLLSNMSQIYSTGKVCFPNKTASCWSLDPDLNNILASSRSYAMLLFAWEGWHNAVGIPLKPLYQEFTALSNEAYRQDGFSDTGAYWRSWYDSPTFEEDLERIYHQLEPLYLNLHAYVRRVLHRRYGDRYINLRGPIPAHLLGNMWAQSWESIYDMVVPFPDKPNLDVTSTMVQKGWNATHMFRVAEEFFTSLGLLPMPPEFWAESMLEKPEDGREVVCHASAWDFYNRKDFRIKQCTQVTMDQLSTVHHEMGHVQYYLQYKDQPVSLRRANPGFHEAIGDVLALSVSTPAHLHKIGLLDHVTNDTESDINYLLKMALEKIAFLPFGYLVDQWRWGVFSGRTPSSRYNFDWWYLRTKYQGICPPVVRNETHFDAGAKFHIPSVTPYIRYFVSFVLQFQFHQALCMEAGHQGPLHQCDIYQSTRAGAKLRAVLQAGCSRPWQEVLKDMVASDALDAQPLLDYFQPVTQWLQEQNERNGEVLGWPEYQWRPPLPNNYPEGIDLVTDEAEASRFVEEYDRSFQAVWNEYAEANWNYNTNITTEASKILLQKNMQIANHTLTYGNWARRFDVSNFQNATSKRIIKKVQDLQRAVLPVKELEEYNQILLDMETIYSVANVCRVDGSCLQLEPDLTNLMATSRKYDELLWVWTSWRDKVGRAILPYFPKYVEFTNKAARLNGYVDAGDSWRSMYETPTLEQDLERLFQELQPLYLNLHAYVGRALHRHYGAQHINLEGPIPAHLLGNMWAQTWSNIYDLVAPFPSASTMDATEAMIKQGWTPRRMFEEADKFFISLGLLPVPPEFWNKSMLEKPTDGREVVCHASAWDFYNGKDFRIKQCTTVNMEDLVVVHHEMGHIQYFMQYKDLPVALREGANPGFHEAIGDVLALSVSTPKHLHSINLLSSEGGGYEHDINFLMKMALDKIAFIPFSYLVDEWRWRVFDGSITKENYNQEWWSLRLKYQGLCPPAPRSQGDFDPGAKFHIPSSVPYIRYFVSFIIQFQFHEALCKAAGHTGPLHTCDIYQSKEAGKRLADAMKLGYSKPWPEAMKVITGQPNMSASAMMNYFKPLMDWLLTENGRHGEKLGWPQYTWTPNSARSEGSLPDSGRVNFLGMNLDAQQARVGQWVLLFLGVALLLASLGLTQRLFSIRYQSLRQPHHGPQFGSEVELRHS
# Source text: Among these peptides, ACEi peptides represent a promising alternative to synthetic drugs to control hypertension. For instance, canary seed peptides (CSP) have great potential as anti-hypertensive and anti-obesity agents due to their inhibition activity on ACE and pancreatic lipase, and their non-competitive inhibitory activity was due to their destabilization of the transition state and Zn(II) coordination in ACE [13]. […] Auwal et al. illustrated that branched aliphatic or dicarboxylic amino acids (Val, Ala, Ile, and Leu) at the N-terminus could strengthen ACEi ability of peptides. Then, Val residue at the N-terminus of TMAP2 could improve its ACEi ability. […] Therefore, Ser residue, especially its hydroxyl group, should play a vital effect in the ACEi capability of ...
substance,measurement,setting,value
"H-VDRYF-OH [TMAP2, Val-Asp-Arg-Tyr-Phe]",reversal of NE-reduced NO content,"[1]; 200 μM peptide with NE (0.5 μM), p < 0.001 vs NE",partially offset
same,NO level,"[1]; 400 μM, control 34.41 ± 1.27, p < 0.001",51.88 ± 2.16 μmol/gprot
same,NO level vs control group,"[1]; 100, 200 and 400 μM, p < 0.001",significantly increased
same,ET-1 secretion with NE,"[2]; 200 μM peptide with NE (0.5 μM), NE alone 140.23 ± 5.81, p < 0.01",111.78 ± 3.06 pg/mL
same,ET-1 secretion,"[2]; 400 μM, control 118.68 ± 0.53",92.09 ± 4.58 pg/mL
same,ET-1 secretion vs control group,"[2]; tested concentrations (100–400 μM), p < 0.001 or p < 0.01",decreased
same,cell toxicity,[3],did not induce significant cell toxicity
KYIPIQ [ACEi peptide found in yak milk casein],expression of phosphorylated eNOS in HUVECs,[4],promote NO synthesis and the expression of phosphorylated endothelial NO synthase (eNOS) in HUVECs
same,NO synthesis in HUVECs,[5]; via Akt pathway,promote NO synthesis
GRVSNCAA [ACEi peptide from Ruditapes philippinarum],systolic blood pressure,[6],lower systolic blood pressure
same,NO production of HUVEC,[5],increasing the NO production
same,NO secretion,[5],promote NO secretion
same,ET-1 production,[7],reduced ET-1 production
same,ET-1 generation,[7],significantly lessening ET-1 generation
same,IC50,[8],57.9 µM
same,mode of ACE inhibition,[8],Noncompetitive
TYLPVH [ACEi peptide from Ruditapes philippinarum],systolic blood pressure,[6],lower systolic blood pressure
same,NO production of HUVEC,[5],increasing the NO production
same,NO secretion,[5],promote NO secretion
same,ET-1 production,[7],reduced ET-1 production
same,ET-1 generation,[7],significantly lessening ET-1 generation
same,IC50,[8],1.37 µM
same,mode of ACE inhibition,[8],Noncompetitive
